Measurements: ChEMBL document CHEMBL5303304, “EUbOPEN Chemogenomics Library - IncuCyte” (2023)

What was measured:
Format in all cases: toxicity, cell-based
HEK-293T = test: Incucyte cell viability with HEK293T; conditions: human, 10 µM, compound concentration 10 uM
U2OS = test: Incucyte cell viability with U2OS; conditions: human, 10 µM, compound concentration 10 uM
Fibroblast = test: Incucyte cell viability with human fibroblast; conditions: 10 µM, compound concentration 10 uM
Note: unitless GR value; below 1 slowed growth and below 0 cell loss.

Compound	Growth Rate (U2OS; 12 h, replicate number 2)	Growth Rate (U2OS; 18 h, replicate number 2)	Growth Rate (U2OS; 24 h, replicate number 2)	Growth Rate (U2OS; 0 h, replicate number 1)	Growth Rate (U2OS; 0 h, replicate number 2)	Growth Rate (U2OS; 6 h, replicate number 2)	Growth Rate (Fibroblast; 6 h, replicate number 2)	Growth Rate (Fibroblast; 12 h, replicate number 2)	Growth Rate (Fibroblast; 18 h, replicate number 1)	Growth Rate (Fibroblast; 18 h, replicate number 2)	Growth Rate (Fibroblast; 24 h, replicate number 1)	Growth Rate (Fibroblast; 24 h, replicate number 2)	Growth Rate (U2OS; 24 h, replicate number 1)	Growth Rate (U2OS; 6 h, replicate number 1)	Growth Rate (U2OS; 12 h, replicate number 1)	Growth Rate (Fibroblast; 6 h, replicate number 1)	also measured
CNc1oc(-c2cccc3ccccc23)nc1C#N	0.93	0.92	0.99														Growth Rate (HEK-293T; 0 h, replicate number 2): -0.92
COc1cc(Nc2cnc(C#N)c(O[C@H](C)CN(C)C)n2)ncc1-c1cnn(C)c1	0.82	0.67	0.43	-1	0.66	0.42											Growth Rate (HEK-293T; 0 h, replicate number 1): -1; Growth Rate (HEK-293T; 0 h, replicate number 2): -0.51; Growth Rate (HEK-293T; 6 h, replicate number 1): 0.63; Growth Rate (HEK-293T; 6 h, replicate number 2): -0.18; Growth Rate (HEK-293T; 12 h, replicate number 1): -0.1; Growth Rate (HEK-293T; 12 h, replicate number 2): -0.4; Growth Rate (HEK-293T; 18 h, replicate number 1): -0.17; Growth Rate (HEK-293T; 18 h, replicate number 2): -0.32; Growth Rate (HEK-293T; 24 h, replicate number 1): -0.06; Growth Rate (HEK-293T; 24 h, replicate number 2): -0.22
O=C(O)c1cccc(C2=C(c3cc(Cl)ccc3OCc3ccc(F)cc3F)CCC2)n1	1																Growth Rate (HEK-293T; 0 h, replicate number 1): 0.79
CC(C)N(CCCCOCC(=O)O)c1cnc(-c2ccccc2)c(-c2ccccc2)n1			0.99														Growth Rate (Fibroblast; 0 h, replicate number 2): -0.09
N#C/C(=C\c1ccc(O)c(O)c1)C(=O)OCCc1cccs1	0.63	0.94	0.93		0.41		-0.28	0.78	1	0.58	0.86	0.54	0.8				
CC(C)(O)[C@H](F)CN1Cc2cc(NC(=O)c3cnn4cccnc34)c(N3CCOCC3)cc2C1=O	0.95	0.95	0.93	-0.84													Growth Rate (HEK-293T; 0 h, replicate number 2): 0.15; Growth Rate (HEK-293T; 6 h, replicate number 1): 0.89; Growth Rate (HEK-293T; 6 h, replicate number 2): 0.72; Growth Rate (HEK-293T; 12 h, replicate number 1): 1; Growth Rate (HEK-293T; 12 h, replicate number 2): 0.86; Growth Rate (HEK-293T; 18 h, replicate number 2): 0.82; Growth Rate (HEK-293T; 24 h, replicate number 1): 0.96; Growth Rate (HEK-293T; 24 h, replicate number 2): 0.85
COc1cc(-c2cncc(-c3ccc(N4CCN(C(C)C)CC4)cc3)c2C)cc(F)c1C(N)=O																	Growth Rate (Fibroblast; 0 h, replicate number 2): -0.84; Growth Rate (HEK-293T; 0 h, replicate number 1): -0.67
Cl.Cl.Nc1nccc(-c2c(-c3ccc(F)cc3)ncn2C2CCCCC2)n1		0.84	0.81										0.95	0.19	0.8		Growth Rate (HEK-293T; 0 h, replicate number 2): 0.73; Growth Rate (HEK-293T; 6 h, replicate number 1): 0.63; Growth Rate (HEK-293T; 6 h, replicate number 2): 0.51; Growth Rate (HEK-293T; 12 h, replicate number 1): 0.99; Growth Rate (HEK-293T; 12 h, replicate number 2): 0.49; Growth Rate (HEK-293T; 18 h, replicate number 1): 0.99; Growth Rate (HEK-293T; 18 h, replicate number 2): 0.44; Growth Rate (HEK-293T; 24 h, replicate number 1): 0.95; Growth Rate (HEK-293T; 24 h, replicate number 2): 0.51; Growth Rate (U2OS; 18 h, replicate number 1): 0.93
CNc1ncc2cc(-c3ccc(-c4ncccc4F)cc3Cl)c(=O)n(C[C@H]3OC[C@H](N)CO3)c2n1							-0.26	-0.06	0.78	0.35	0.8	0.66				0.02	Growth Rate (Fibroblast; 12 h, replicate number 1): 0.37; Growth Rate (HEK-293T; 0 h, replicate number 1): -0.97
Cc1cc(Cn2c(N3CC4(CNC4)C3)nc3cc(Cl)cc(N4CCN(C)CC4)c32)cc(C)c1F	0.82	0.98	0.96	-0.3	-0.61	0.64	-0.44	0.21	0	0.16	0.06	0.36	0.83	0.43	0.79	-0.09	Growth Rate (Fibroblast; 0 h, replicate number 1): -1; Growth Rate (Fibroblast; 0 h, replicate number 2): -0.8; Growth Rate (Fibroblast; 12 h, replicate number 1): -0.09; Growth Rate (U2OS; 18 h, replicate number 1): 0.95
CCN1C(=O)C(c2cccc(C(=O)O)c2)C(=O)N(c2ccccc2)c2cc(C(F)(F)F)ccc21 (stereo unspecified)	0.94	0.95		0.96	0.93	0.97	-0.94	0.41	0.92	0.96	0.95		0.88	0.49	0.8	0.7	Growth Rate (Fibroblast; 0 h, replicate number 1): -1; Growth Rate (Fibroblast; 0 h, replicate number 2): 0.93; Growth Rate (Fibroblast; 12 h, replicate number 1): 0.85
COc1cc(C)c(S(=O)(=O)N(C)CCC(=O)N[C@H]2CC[C@@H](N3CCC4CN(C)CC4C3)CC2)c(C)c1.Cl.Cl (stereo partly specified)	0.88	0.99				0.87								0.78	0.97	0.39	Growth Rate (Fibroblast; 0 h, replicate number 2): -0.7
O=C(Nc1cc2cc[nH]c(=O)c2cc1Cl)[C@H]1CNC[C@@H]1c1cccnc1.O=C(O)C(F)(F)F																	Growth Rate (HEK-293T; 0 h, replicate number 1): -0.73
CS(C)(=O)=Nc1ccc(-c2ccc(-c3nc4[nH]c(O[C@@H]5CO[C@H]6[C@@H]5OC[C@H]6O)nc4cc3Cl)cc2)cc1	0.92	0.97	0.98	0.01		0.94					0.75		0.77	0.36	0.65		Growth Rate (U2OS; 18 h, replicate number 1): 0.82
Cc1nc2cccnc2n2c(-c3cc([C@@]4(O)CCCOC4)ccc3Cl)nnc12	0.83	0.96					-0.24	0.67	0.97	0.74	0.81	0.88				0.39	
COc1cc(-c2cc3ncccc3c(O[C@@H](C)[C@H]3CNC(=O)C3)n2)cc(OC)c1OC								0.62						0.94			
Cc1cnc(Nc2ccc(C(=O)N3CCN(C)CC3)cc2)nc1N[C@@H]1CCC[C@@H]1C(N)=O	0.38	0.45	0.52	0.86	0.22	-0.77	0.31	-0.08		0.56	0.96	0.61	0.34	0.41	0.4		Growth Rate (Fibroblast; 12 h, replicate number 1): 0.62; Growth Rate (U2OS; 18 h, replicate number 1): 0.31
Cl.Clc1cc2cc(c1)-c1cnn3ccc(nc13)NCCOCCO2	0.85		0.92	-0.1	0.65	0.72	-0.68		0.22		-0.13		0.93		0.99	0.79	Growth Rate (Fibroblast; 12 h, replicate number 1): -1
O=C(O)c1ccc(CN2C[C@@H]3C[C@H]2CN3Cc2ccc(Oc3ccc(-c4ncco4)cc3)cc2)cc1 [ACEBILUSTAT]	0.49	0.79	0.82		0.32	-0.01	-0.8	0.38		0.62		0.87		0.74			Growth Rate (Fibroblast; 0 h, replicate number 1): -0.98
CC(C)(C#N)c1cc(Cn2cncn2)cc(C(C)(C)C#N)c1 [ANASTROZOLE]				-0.51					0.84		0.63						Growth Rate (Fibroblast; 0 h, replicate number 2): -1; Growth Rate (Fibroblast; 12 h, replicate number 1): -1
C[C@H](CCC(=O)O)[C@H]1CC[C@H]2[C@@H]3CC[C@@H]4C[C@H](O)CC[C@]4(C)[C@H]3C[C@H](O)[C@]12C [DEOXYCHOLIC ACID]	0.96			0.46	0.84	0.82	0.72	0.78	0.97	0.69		0.9	0.86	0.86	0.76	0.32	Growth Rate (Fibroblast; 0 h, replicate number 1): 0.67; Growth Rate (U2OS; 18 h, replicate number 1): 0.88
C[C@]12CC[C@H](O)CC1=CC[C@@H]1[C@@H]2CC[C@]2(C)C(n3cnc4ccccc43)=CC[C@@H]12 [GALETERONE]				-0.4			-0.64		0.61		0.01					0.94	Growth Rate (Fibroblast; 0 h, replicate number 1): -0.16; Growth Rate (Fibroblast; 0 h, replicate number 2): 0.96
CC#CCC(C)[C@H](O)/C=C/[C@@H]1[C@H]2C/C(=C/CCCC(=O)O)C[C@H]2C[C@H]1O (stereo partly specified) [ILOPROST]													0.86				Growth Rate (HEK-293T; 0 h, replicate number 1): 0.66; Growth Rate (HEK-293T; 0 h, replicate number 2): 0.38
COc1nc2ccc([C@@](O)(c3ccc(Cl)cc3)c3cncn3C)cc2c(Cl)c1Cc1ccc(-n2cccn2)cc1 [JNJ-53721590]				-1										-0.25			Growth Rate (HEK-293T; 0 h, replicate number 1): -0.99; Growth Rate (HEK-293T; 0 h, replicate number 2): -1
c1ccc(Cn2c(N3CCNCC3)nc3ccccc32)cc1 [LERISETRON]		0.94	0.99			0.64	-0.44	0.34		0.56		0.68		0.7			Growth Rate (Fibroblast; 0 h, replicate number 1): -0.1
